Measurements as given in PMC2582240, “Enhanced A3 adenosine receptor selectivity of multivalent nucleoside-dendrimer conjugates” (Journal of Nanobiotechnology, 2008).

Key:
[1] = biological target: T1, A3 AR (Homo sapiens, UniProt P0DMS8); assay: Radioligand binding at A3 AR ([125I]AB-MECA, CHO cell membranes)
T1 construct: expressed in transfected cells; host or cells: CHO cells, stably transfected
T1 sequence (P0DMS8 1-318): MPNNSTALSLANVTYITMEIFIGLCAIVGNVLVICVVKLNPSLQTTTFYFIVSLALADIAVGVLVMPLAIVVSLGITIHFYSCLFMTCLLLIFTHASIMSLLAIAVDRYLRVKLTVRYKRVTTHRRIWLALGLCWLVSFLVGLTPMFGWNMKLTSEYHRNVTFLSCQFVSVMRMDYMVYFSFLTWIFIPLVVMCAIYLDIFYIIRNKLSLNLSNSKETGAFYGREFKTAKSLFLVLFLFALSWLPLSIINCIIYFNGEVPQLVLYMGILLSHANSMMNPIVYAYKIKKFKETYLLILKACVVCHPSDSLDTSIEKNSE
Protocol: (§1) CHO (Chinese hamster ovary) cells stably expressing the recombinant human ARs were cultured in Dulbecco's modified Eagle medium (DMEM) and F12 (1:1) supplemented with 10% fetal bovine serum, 100 units/mL penicillin, 100 μg/mL streptomycin, and 2 μmol/mL glutamine. After harvesting, cells were homogenized and suspended. Cells were then centrifuged at 500 g for 10 min, and the pellet was resuspended in 50 mM Tris-HCl buffer (pH 7.5) containing 10 mM MgCl2. The suspension was homogenized and was then recentrifuged at 20 000 g for 20 min at 4°C. The resultant pellets were resuspended in Tris buffer, incubated with adenosine deaminase for 30 min at 37°C, and the suspension was stored at -80°C until the binding experiments. The protein concentration was measured using the BCA Protein Assay Kit from Pierce.
(§2) Radioligand binding assays were performed for A1 and A2A ARs, following the procedure described previously. Each tube in the binding assay contained 100 μL of membrane suspension (20 μg of protein), 50 μL of agonist radioligand, and 50 μL of increasing concentrations of the test ligands in Tris-HCl buffer (50 mM, pH 7.5) containing 10 mM MgCl2. The concentration of the dendrimer-ligand complexes are measured by the concentration of the dendrimer, not the ligand. Therefore, all Ki values are measured as Ki app values. Nonspecific binding was determined using a final concentration of 10 μM 5'-N-ethylcarboxamidoadenosine diluted with the buffer. The mixtures were incubated at 25°C for 60 min. Binding reactions were terminated by filtration through Whatman GF/B filters under a reduced pressure using a MT-24 cell harvester (Brandell, Gaithersburg, MD). Filters were washed three times with 5 mL of 50 mM ice-cold Tris-HCl buffer (pH 7.5). […] All of the filters were washed 3 times with Tris-HCl, pH 7.5. Filters for A1 and A2A AR binding were placed in scintillation vials containing 5 mL of Hydrofluor scintillation buffer and counted using a Perkin Elmer Liquid Scintillation Analyzer. Filters for A3 AR binding were counted using a Packard Cobra II γ-counter. The Ki values were determined using GraphPad Prism for all assays.

[2] = biological target: T2, A1 AR (Homo sapiens, UniProt P30542); assay: cAMP assay (inhibition of forskolin-stimulated adenylyl cyclase) in CHO cells expressing A1 AR; assay type: cell-based; settings: for EC50: cAMP inhibition, mean ± SEM, n = 3; for A1 (adenylyl cyclase), class word: at 10 μM, relative to total inhibition by ADAC
T2 sequence (P30542 1-326): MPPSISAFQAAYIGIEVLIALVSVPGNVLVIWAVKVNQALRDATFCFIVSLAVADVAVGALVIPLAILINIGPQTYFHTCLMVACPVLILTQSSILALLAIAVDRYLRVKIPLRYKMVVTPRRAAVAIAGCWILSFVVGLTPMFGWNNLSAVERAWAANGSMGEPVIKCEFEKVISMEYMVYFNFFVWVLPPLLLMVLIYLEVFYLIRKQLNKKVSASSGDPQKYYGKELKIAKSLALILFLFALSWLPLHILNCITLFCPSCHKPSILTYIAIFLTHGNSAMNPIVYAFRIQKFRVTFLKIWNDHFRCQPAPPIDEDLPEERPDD
Protocol: (§3) CHO cells expressing either the A1 or A3 AR were seeded in 24 well plates and incubated at 37°C overnight. The following day the medium was removed and replaced with DMEM containing 50 mM HEPES, 10 μM rolipram, 3 U/ml adenosine deaminase and increasing concentrations of the compounds. After a 30 min incubation at 37°C, 10 μM of forskolin was added to stimulate cAMP levels, and the cells were incubated at 37°C for an additional 15 min. The medium was removed, and the cells were lysed with 200 μl of 0.1 M HCl. 100 μl of the HCl solution was used in the Sigma Direct cAMP Enzyme Immunoassay following the instructions provided with the kit.

[3] = tested on: ten-min bilateral cerebrovascular occlusion; settings: cited from earlier work
[4] = biological target: T3, A2A AR (Homo sapiens, UniProt P29274); assay: Radioligand binding at A2A AR ([3H]CGS21680, HEK cells)
T3 construct: expressed in transfected cells; host or cells: CHO
Protocol: as §1, §2

[5] = biological target: T2, A1 AR; assay: [35S]GTPγS binding assay in CHO A1 membranes; assay type: biochemical; settings: for EC50: mean ± SEM, n = 3
Protocol: as §1
[^35S]GTPγS binding was measured in 200 μl of buffer containing 50 mM Tris-HCl (pH 7.4), 1 mM EDTA, 1 mM MgCl2, 10 μM GDP, 1 mM dithiothreitol, 100 mM NaCl, 3 units/ml adenosine deaminase, 0.2 nM [^35S]GTPγS, 0.004% CHAPS, 0.5% bovine serum albumin and increasing concentrations of the ligands. Samples were started by addition of the membrane suspension (5–10 μg protein/tube) to the test tubes and incubated at 25°C for 30 min. The assay was terminated by rapid filtration through Whatman GF/B filters, pre-soaked in 50 mM Tris-HCl (pH 7.4) containing 5 mM MgCl2 and 0.02% CHAPS. Non-specific binding of [^35S]GTPγS was measured in the presence of 10 μM unlabelled GTPγS. After the filters were washed, they were placed in scintillation vials containing 5 mL of Hydrofluor scintillation buffer and counted using a Perkin Elmer Liquid Scintillation Analyzer. The EC50 values were determined using GraphPad Prism for all assays.

[6] = biological target: T1, A3 AR; assay: cAMP assay (inhibition of forskolin-stimulated adenylyl cyclase) in CHO cells expressing A3 AR; assay type: cell-based; settings: for EC50: cAMP inhibition, mean ± SEM, n = 3; for A3 (adenylyl cyclase), class word: relative to total inhibition by ADAC
Protocol: as §3

[7] = biological target: T2, A1 AR; assay: Radioligand binding at A1 AR ([3H]CCPA, CHO cell membranes); settings: for Difference in affinity between the human A1 and A3 ARs / Binding at the A1 AR, in words: radioligand binding; for A1 binding, class symbol: inhibition of radioligand binding at 10 μM
Protocol: as §1
Radioligand binding assays were performed for A1 and A2A ARs, following the procedure described previously. Each tube in the binding assay contained 100 μL of membrane suspension (20 μg of protein), 50 μL of agonist radioligand, and 50 μL of increasing concentrations of the test ligands in Tris-HCl buffer (50 mM, pH 7.5) containing 10 mM MgCl2. The concentration of the dendrimer-ligand complexes are measured by the concentration of the dendrimer, not the ligand. Therefore, all Ki values are measured as Ki app values. Nonspecific binding was determined using a final concentration of 10 μM 5'-N-ethylcarboxamidoadenosine diluted with the buffer. The mixtures were incubated at 25°C for 60 min. Binding reactions were terminated by filtration through Whatman GF/B filters under a reduced pressure using a MT-24 cell harvester (Brandell, Gaithersburg, MD). Filters were washed three times with 5 mL of 50 mM ice-cold Tris-HCl buffer (pH 7.5). The radioactive agonists [^3H]2-chloro-N^6-cyclopentyladenosine and [^3H]2-(4-(2-carboxyethyl)phenylethylamino)-5'-N-ethylcarboxamido-adenosine were used for the A1 and A2A assays, respectively. All of the filters were washed 3 times with Tris-HCl, pH 7.5. Filters for A1 and A2A AR binding were placed in scintillation vials containing 5 mL of Hydrofluor scintillation buffer and counted using a Perkin Elmer Liquid Scintillation Analyzer. Filters for A3 AR binding were counted using a Packard Cobra II γ-counter. The Ki values were determined using GraphPad Prism for all assays.

[8] = tested on: CHO cells; assay: Light and fluorescent microscopy of CHO cells not expressing the A3 AR; assay type: cell-based, Chinese hamster; settings: 10 μM, 1 h, one wash with PBS
Protocol: (§4) After one wash with PBS, the cells were imaged at 100× magnification on a Zeiss AxioVision D1 Imager, and both light and fluorescent pictures were obtained.
(§5) CHO or CHO A3 cells were seeded on a cover disk in a 6 well dish (250,000 cells per well). After the cells were incubated for 24 hrs at 37°C, the medium was removed and replaced with DMEM containing 10 μM of the 15 or 17. The cells were incubated for 1 h at 37°C and washed one time with PBS. The images were taken with at 100× manification using a Zeiss AxioVision D1 Imager equipped with AxioVision 4.5 software.

[9] = tested on: CHO A3 cells; assay: Light and fluorescent microscopy of CHO A3 cells; assay type: cell-based, Chinese hamster; settings: 10 μM, 1 h, one wash with PBS, CHO cells stably expressing the A3 AR
Protocol: as §4, §5

[10] = inhibition of radioligand binding at 10 μM

T3 sequence (P29274 whole entry): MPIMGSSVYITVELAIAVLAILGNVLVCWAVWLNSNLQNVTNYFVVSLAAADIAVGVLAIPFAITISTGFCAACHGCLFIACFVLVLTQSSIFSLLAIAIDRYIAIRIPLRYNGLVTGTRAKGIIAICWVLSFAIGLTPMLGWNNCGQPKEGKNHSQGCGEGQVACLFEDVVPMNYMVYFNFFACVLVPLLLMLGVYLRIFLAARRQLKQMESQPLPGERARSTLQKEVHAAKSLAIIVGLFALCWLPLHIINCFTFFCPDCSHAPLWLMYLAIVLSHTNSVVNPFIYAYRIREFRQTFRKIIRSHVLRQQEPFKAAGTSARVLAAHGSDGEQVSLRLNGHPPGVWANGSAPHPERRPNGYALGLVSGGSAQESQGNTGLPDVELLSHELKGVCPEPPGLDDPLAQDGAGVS

Row | Ki [1] | EC50 [2] | Ki [4] | EC50 [5] | EC50 [6] | Ki [7] | Difference in affinity between the human A1 and A3 ARs [7] | A1 (adenylyl cyclase), class word [2] | A3 (adenylyl cyclase), class word ([6]; at 10 μM) | Binding at the A1 AR, in words [7] | Compound | Inhibition of cAMP production at the A1 AR, in words [2] | A1 binding, class symbol [7] | other results
1 |  |  |  |  |  |  |  | inactive^c | inactive^c | no binding | G3 PAMAM – 23 Ac – AF488 [Compound 11] | unable to significantly inhibit cAMP production | NB^b (NB, No binding. Inhibition of radioligand binding < 10% at 10 μM) | Inhibition of cAMP production at the A3 AR, in words ([6]; at 10 μM): unable to significantly inhibit cAMP production
2 | 9.5 ± 2 nM | 89 ± 17 nM | 300 ± 20 nM | 63 ± 14 nM | 36 ± 13 nM | 43 ± 5 nM | < 5 fold |  |  |  | NCCNCCNC(=O)Cc1ccc(NC(=O)Cc2ccc(Nc3ncnc4c3ncn4[C@@H]3O[C@H](CO)[C@@H](O)[C@H]3O)cc2)cc1 [Compound 7, N-(2-(2-Aminoethylamino)ethyl)-2-(4-(2-(4-(9-((2R,3R,4S,5R)-3,4-dihydroxy-5-(hydroxymethyl)-tetrahydrofuran-2-yl)-9H-purin-6-ylamino)-phenyl)acetamido)phenyl)acetamide] |  |  | Fold more potent than either ADAC or 4 in adenylyl cyclase assay ([2]; A1 AR): 3 – 7 fold; Fold more potent than 4 in activation of GTPγS binding via the A1 AR [5]: 20 fold; Fold more potent than either ADAC or 4 in adenylyl cyclase assay ([6]; A3 AR): 3 – 7 fold
3 | 74 ± 20 nM | 350 ± 20 nM | 800 ± 360 nM | 1300 ± 400 nM | 140 ± 70 nM | 30 ± 9 nM | < 5 fold |  |  |  | O=C(O)CCc1ccc(NC(=S)NCCNC(=O)Cc2ccc(NC(=O)Cc3ccc(Nc4ncnc5c4ncn5[C@@H]4O[C@H](CO)[C@@H](O)[C@H]4O)cc3)cc2)cc1 [Compound 4, 3-(4-(3-(2-(2-(4-(2-(4-(9-((2R,3R,4S,5R)-3,4-Dihydroxy-5-(hydroxymethyl)tetrahydrofuran-2-yl)-9H-purin-6-ylamino)phenyl)acetamido)-phenyl)acetamido)ethyl)thioureido)phenyl)pro-panoic acid] |  |  | 
4 |  |  |  |  |  |  |  | inactive^c | inactive^c | no binding | G2.5 PAMAM – AF488 [Compound 15] | no binding or activity | NB^b (NB, No binding. Inhibition of radioligand binding < 10% at 10 μM) | A3 binding, class symbol [1, 10]: NB^b (NB, No binding. Inhibition of radioligand binding < 10% at 10 μM); Fluorescent binding to cells [8]: Neither type of CHO cells were bound; A2A binding, class symbol [4, 10]: NB^b (NB, No binding. Inhibition of radioligand binding < 10% at 10 μM); Fluorescent binding to cells [9]: Neither type of CHO cells were bound

Row | Compound | Ki [1] | EC50 [2] | Ki [4] | EC50 [5] | EC50 [6] | Ki [7] | Difference in affinity between the human A1 and A3 ARs [7] | A1 (adenylyl cyclase), class word [2] | A3 (adenylyl cyclase), class word ([6]; at 10 μM) | Binding at the A1 AR, in words [7] | Inhibition of cAMP production at the A1 AR, in words [2] | A1 binding, class symbol [7] | other results
5 | NCCNC(=O)Cc1ccc(NC(=O)Cc2ccc(Nc3ncnc4c3ncn4[C@@H]3O[C@H](CO)[C@@H](O)[C@H]3O)cc2)cc1 [Compound 1, N^6-[4-[[[4-[[[(2-aminoethyl)amino]carbonyl]methyl]anilino]-carbonyl]methyl]phenyl]adenosine, reference compound] | 12.2 ± 4.1 nM | 400 ± 80 nM | 370 ± 100 nM | 94 ± 26 nM | 100 ± 50 nM | 10.4 ± 3.8 nM | < 5 fold |  |  |  |  |  | Protection against neuronal damage and mortality ([3]; acute or chronic administration prior to occlusion): protects against neuronal damage and mortality; Neuronal protection post-ischemia ([3]; given up to twelve hours post-ischemia): provides neuronal protection
